Source: the Kinase Knowledgebase extract (Sharma et al. 2016)

Molecular target: PIK3CB;PIK3CG;PIK3CD;PIK3CA (human) (UniProt P48736)
Assay: Enzyme Assay

| IC50 | Compound |
| --- | --- |
| 25 nM | COC1CCN(CCN2CCC[C@H](n3nc(C(=O)N4CCOCC4)c4c3-c3ccccc3S(=O)(=O)C4)C2)C1 (some centres undefined) |
| 80 nM | O=C(c1nn([C@H]2CCCN(C3CCOCC3)C2)c2c1CS(=O)(=O)c1ccccc1-2)N1CCOCC1 |
| 445 nM | O=C(c1nn(-c2cccc(OCCn3cccn3)c2)c2c1CS(=O)(=O)c1ccccc1-2)N1CCOCC1 |
| 1620 nM | O=C(c1nn(-c2ccccc2)c2c1CS(=O)(=O)c1ccc(CN3CCOCC3)cc1-2)N1CCOCC1 |
| 350 nM | COC1CCN(Cc2cccc(-n3nc(C(=O)N4CCOCC4)c4c3-c3ccccc3S(=O)(=O)C4)c2)C1 (centres undefined) |
| 3010 nM | O=C(c1nn(C2CCCNC2)c2c1CS(=O)(=O)c1ccccc1-2)N1CCOCC1 (centres undefined) |
| 48 nM | COC(=O)CCN1CCC[C@H](n2nc(C(=O)N3CCOCC3)c3c2-c2ccccc2S(=O)(=O)C3)C1 |
| 555 nM | O=C(c1nn(-c2ccc(CN3CCOCC3)cc2)c2c1CS(=O)(=O)c1ccc(F)cc1-2)N1CCOCC1 |
| 1200 nM | O=C(c1nn(-c2ccc(CN3CCC(F)CC3)nc2)c2c1CS(=O)(=O)c1ccccc1-2)N1CCOCC1 |
| 2980 nM | CN(C)Cc1noc(-c2cccc(-n3nc(C(=O)N4CCOCC4)c4c3-c3ccccc3S(=O)(=O)C4)c2)n1 |
| 19 nM | COc1ccc2c(c1)S(=O)(=O)Cc1c(C(=O)N3CCOCC3)nn([C@H]3CCCN(CCN4CCC(F)CC4)C3)c1-2 |
| 230 nM | O=C(c1nn(-c2ccc(CN3CCC(F)(F)CC3)cc2)c2c1CS(=O)(=O)c1ccccc1-2)N1CCOCC1 |
| 4190 nM | COCc1noc(-c2cccc(-n3nc(C(=O)N4CCOCC4)c4c3-c3ccccc3S(=O)(=O)C4)c2)n1 |
| 2880 nM | O=C(c1n[nH]c2c1CS(=O)(=O)c1ccccc1-2)N1CCOCC1 |
| 692 nM | O=C(c1nn(C2CCN(CCC3CCOCC3)CC2)c2c1CS(=O)(=O)c1ccccc1-2)N1CCOCC1 |
| 80 nM | O=C(c1nn(C2CCCN(CCn3cccn3)C2)c2c1CS(=O)(=O)c1c(F)cccc1-2)N1CCOCC1 (centres undefined) |
| 2690 nM | Cc1noc(-c2cccc(-n3nc(C(=O)N4CCOCC4)c4c3-c3ccccc3S(=O)(=O)C4)c2)n1 |

| IC50 | Compound |
| --- | --- |
| 584 nM | CC(C)(c1ccc(-n2nc(C(=O)N3CCOCC3)c3c2-c2ccccc2S(=O)(=O)C3)cc1)N1CCOCC1 |
| 2650 nM | CN1CCC(Cn2nc(C(=O)N3CCOCC3)c3c2-c2ccccc2S(=O)(=O)C3)CC1 |
| 17 nM | O=C(c1nn([C@H]2CCCN(CCN3CC(F)(F)C3)C2)c2c1CS(=O)(=O)c1ccccc1-2)N1CCOCC1 |
| 59 nM | COC1CCN(Cc2ccc(-n3nc(C(=O)N4CCOCC4)c4c3-c3ccccc3S(=O)(=O)C4)cc2)C1 (centres undefined) |
| 2690 nM | Cn1cc(-n2nc(C(=O)N3CCOCC3)c3c2-c2ccsc2S(=O)(=O)C3)ccc1=O |
| 440 nM | O=C(c1nn(-c2cccc(Cl)c2)c2c1CS(=O)(=O)c1ccccc1-2)N1CCOCC1 |
| 155 nM | O=C(c1nn(C2CCCN(CCC3CCCCC3)C2)c2c1CS(=O)(=O)c1ccccc1-2)N1CCOCC1 (centres undefined) |
| 2220 nM | Cn1nc(C(=O)N2CCOCC2)c2c1-c1cc(F)ccc1S(=O)(=O)C2 |
| 14800 nM | COc1ccccc1-n1nc(C(=O)N2CCOCC2)c2c1-c1ccccc1S(=O)(=O)C2 |
| 28 nM | COc1ccc2c(c1)-c1c(c(C(=O)N3CCOCC3)nn1[C@H]1CCCN(CCN3CCOCC3)C1)CS2(=O)=O |
| 85 nM | O=C(c1nn([C@H]2CCCN(Cc3cccnc3)C2)c2c1CS(=O)(=O)c1ccccc1-2)N1CCOCC1 |
| 1060 nM | O=C(c1nn([C@H]2CCCNC2)c2c1CS(=O)(=O)c1ccccc1-2)N1CCOCC1 |
| 22 nM | O=C(c1nn([C@H]2CCCN(CCN3CC(F)(F)C3)C2)c2c1CS(=O)(=O)c1c(F)cccc1-2)N1CCOCC1 |
| 1300 nM | O=C(c1nn(-c2ccccc2)c2c1CS(=O)(=O)c1ccc(Br)cc1-2)N1CCOCC1 |
| 1110 nM | COCCNC(=O)c1cccc(-n2nc(C(=O)N3CCOCC3)c3c2-c2ccccc2S(=O)(=O)C3)c1 |
| 34 nM | O=C(c1nn(C2CCCN(CCN3CCC(F)CC3)C2)c2c1CS(=O)(=O)c1ccccc1-2)N1CCOCC1 (centres undefined) |
| 3030 nM | O=C(c1ccc2c(c1)-c1c(c(C(=O)N3CCOCC3)nn1-c1ccccc1)CS2(=O)=O)N1CCOCC1 |
